Data on twelve compounds can be found in US4267102A, “Bleomycin group antibiotics” (Nippon Kayaku Kabushiki Kaisha, priority 1979, dated 1981).

Where “and” joins values, the source holds several entries; their conditions need not be identical. Equal values may be shown once.

Data set [1] deals with DNA labelled with tritium. Nature of the data set: DNA-strand cleaving activity in cell-free system. The data set is classed as biochemical. The settings on record: copper-free compound with divalent iron, oxygen, 37° C., 5 minutes. How it is done:
2. DNA-strand cleaving activity in cell-free system.
The mechanism of carcinostatic action of bleomycins has been believed to involve the cleavage of DNA chain caused by the joint action of copper-free bleomycins, divalent iron and molecular oxygen. Similar activity of N-methylbleomycins were also confirmed.
A mixture of divalent iron and a copper-free N-methylbleomycin was dissolved together with DNA labelled with tritium in a M/10 phosphate buffer of pH 7.4 The resulting solution was allowed to react in the presence of oxygen at 37° C. for 5 minutes. To the reaction mixture, was added 25% trichloroacetic acid. The precipitate was removed by centrifugation and the supernatant (acid-soluble fraction) was assayed for radioactivity to obtain the percentage of acid-soluble DNA in acid. This percentage was utilized as an index of the degree of DNA-strand cleavage. Similar test was repeated on bleomycins A2 and B2 used as reference.

A further data set deals with HeLa S3 cells. Nature of the data set: Growth inhibitory effect on cultured HeLa cells. The data set is classed as cell-based. The following applies: Cu-free; three days cultivation with sample. The method, then: 3. Growth inhibitory effect on cultured HeLa cells.
HeLa S3 cells were inoculated into a medium (MEM with the addition of 10% calf serum) in a plastic Petri dish. After two days from the inoculation, N-methylbleomycinic acid or a N-methylbleomycin was added to the dish and after cultivation for further three days, the number of cells was counted. The growth inhibition (%) was calculated by the following equation: [formula] where A is the final number of cells on the third day from the addition of the test sample, B the final number of cells in a control culture without the addition of the test sample, and C the number of cells at the time of addition of the test sample. The value of ID50 (concentration for 50% inhibition) was calculated from the graph obtained by plotting the concentration of sample against the growth inhibition. A similar test was performed on bleomycinic acid and bleomycins used as control.

The test system of data set [2] is Mycobacterium smegmatis ATCC 607. In words: Antimicrobial activity against Mycobacterium smegmatis ATCC 607 (cylinder agar plate method). The data set is classed as cell-based. The method, then:
4. Antimicrobial activity against Mycobacterium smegmatis ATCC 607.
The antibacterial activity was assayed by the cylinder agar plate method against the above bacterium by assuming the activity of standard copper-free bleomycin A2 to be 1,000 mcg units/mg.
Note: Antimicrobial activity was assayed against Mycobacterium smegmatis ATCC 607 by assuming the activity of bleomycin A2 (copper-free form) to be 1,000 mcg units/mg. The same shall apply hereinafter.

The next data set addresses inactivating enzyme (Rattus norvegicus, UniProt P70645). The settings on record: rat liver extract, 37° C., 15, 30, 60 and 120 minutes; residual activity against Mycobacterium smegmatis ATCC 607.
Setting [3] is: sample concentration 6.25 mcg/ml.
[4] abbreviates: sample concentration 12.5 mcg/ml.
[5] abbreviates: Table 6, Cu-complex, standard copper-free bleomycin A2 assumed 1,000 mcg units/mg.
The mark [6] stands for this setting: Table 6, Cu-free, standard copper-free bleomycin A2 assumed 1,000 mcg units/mg.
Where [7] appears, read: Examples, step A product: copper complex hydrochloride, bleomycin A2 (copper-free form) assumed 1,000 mcg units/mg.
Where [8] appears, read: Examples, step B product: copper-free hydrochloride, bleomycin A2 (copper-free form) assumed 1,000 mcg units/mg.

Sequence of inactivating enzyme (P70645 whole entry): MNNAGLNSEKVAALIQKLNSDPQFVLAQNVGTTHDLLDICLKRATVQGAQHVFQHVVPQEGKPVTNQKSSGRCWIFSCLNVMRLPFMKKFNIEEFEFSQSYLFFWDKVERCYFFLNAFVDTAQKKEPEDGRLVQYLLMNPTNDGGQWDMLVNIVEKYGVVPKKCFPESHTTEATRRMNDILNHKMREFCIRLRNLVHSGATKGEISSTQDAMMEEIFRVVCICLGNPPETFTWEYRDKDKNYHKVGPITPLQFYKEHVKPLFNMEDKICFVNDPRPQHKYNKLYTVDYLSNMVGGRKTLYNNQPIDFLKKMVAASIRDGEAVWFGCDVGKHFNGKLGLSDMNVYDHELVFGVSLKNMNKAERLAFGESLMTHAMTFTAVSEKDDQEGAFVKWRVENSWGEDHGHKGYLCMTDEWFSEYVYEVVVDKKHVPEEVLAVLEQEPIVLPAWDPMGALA
Method for inactivating enzyme: Test for resistance to inactivating enzyme.
(1) Extraction of inactivating enzyme.
The liver of female Donryu strain rat was ground in twice by weight of M/15 phosphate buffer of pH 7.2 to prepare a tissue emulsion. The emulsion was centrifuged at 105,000×G for 60 minutes and the supernatant was dialyzed with the above buffer. A high molecular fraction thus obtained was used as the extract solution of an inactivating enzyme.
(2) Examination of inactivating reaction.

Consider “3-(3-n-butylaminopropylamino)propylamino-N-methylbleomycin [Compound (6)]”, for which the “Acid-soluble DNA (%)” value in data set [1] (setting [3]) turned out to be 59.5%; in data set [1] (setting [4]), 94.0%; in data set [1] (sample concentration 25 mcg/ml) it was 100.4%. For the same compound, the “50% growth inhibitory concentration (ID50) against cultured HeLa S3 cells” value (“50% growth inhibitory concentration” for short) in the data set with HeLa S3 cells is 0.37 µg/mL. For the same compound, the Antimicrobial activity in data set [2] (setting [5]) is reported as 3,695 mcg units/mg; in data set [2] (setting [6]), 3,438 mcg units/mg.
For “3-(3-n-butylaminopropylamino)propylaminobleomycin [reference compound]”, the “50% growth inhibitory concentration” value with HeLa S3 cells was found to be 0.43 µg/mL.
For “3-[(S)-1'-phenylethylamino]propylamino-N-methylbleomycin [Compound (5)]”, the “Acid-soluble DNA (%)” value is 70.1% in data set [1] (setting [3]), 92.6% in data set [1] (setting [4]) and 100.5% in data set [1] (sample concentration 25 mcg/ml). Moreover, the “50% growth inhibitory concentration” value with HeLa S3 cells is 0.30 µg/mL. Moreover, the Antimicrobial activity is given as 4,320 mcg units/mg in data set [2] (setting [7]), 4,280 mcg units/mg in data set [2] (setting [8]), 4,266 mcg units/mg in data set [2] (setting [5]) and 4,333 mcg units/mg in data set [2] (setting [6]).
`Cc1c(N)nc(C(CC(N)=O)NCC(N)C(N)=O)nc1C(=O)NC(C(=O)NC(C)C(O)C(C)C(=O)NC(C(=O)NCCc1nc(-c2nc(C(=O)NCCCNC(C)c3ccccc3)cs2)cs1)C(C)O)C(OC1OC(CO)C(O)C(O)C1OC1OC(CO)C(O)C(OC(N)=O)C1O)c1c[nH]cn1` [3-[(S)-1'-phenylethylamino]propylaminobleomycin, reference compound]: the “50% growth inhibitory concentration” value in the data set with HeLa S3 cells amounted to 0.52 µg/mL.
On to `Cc1c(N)nc([C@H](CC(N)=O)NC[C@H](N)C(N)=O)nc1C(=O)N[C@H](C(=O)N[C@H](C)[C@@H](O)[C@H](C)C(=O)N[C@H](C(=O)NCCc1nc(-c2nc(C(=O)NCCCN)cs2)cs1)[C@@H](C)O)[C@@H](O[C@@H]1O[C@@H](CO)[C@@H](O)[C@H](O)[C@@H]1O[C@H]1O[C@H](CO)[C@@H](O)[C@H](OC(N)=O)[C@@H]1O)c1cnc[nH]1` [Bleomycin A2 -b, bleomycin A2 '-b, reference compound], for which the “50% growth inhibitory concentration” value in the data set with HeLa S3 cells amounted to 1.5 µg/mL.
For the compound `Cc1c(N)nc([C@H](CC(N)=O)NC[C@H](N)C(N)=O)nc1C(=O)N[C@H](C(=O)N[C@H](C)[C@@H](O)[C@H](C)C(=O)N[C@H](C(=O)NCCc1nc(-c2nc(C(=O)NCCC[S+](C)C)cs2)cs1)[C@@H](C)O)[C@@H](O[C@@H]1O[C@@H](CO)[C@@H](O)[C@H](O)[C@@H]1O[C@H]1O[C@H](CO)[C@@H](O)[C@H](OC(N)=O)[C@@H]1O)c1c[nH]cn1.[Br-]` [Bleomycin A2, reference compound], the “Acid-soluble DNA (%)” value in data set [1] (setting [3]) is listed as 78.6%; in data set [1] (setting [4]), 90.8%; in data set [1] (sample concentration 25 mcg/ml) it was 100.9%. Besides, in the data set with HeLa S3 cells, the “50% growth inhibitory concentration” value is 0.73 µg/mL.
Take `Cc1c(N)nc(C(CC(N)=O)NCC(N)C(N)=O)nc1C(=O)NC(C(=O)NC(C)C(O)C(C)C(=O)NC(C(=O)NCCc1nc(-c2nc(C(=O)O)cs2)cs1)C(C)O)C(OC1OC(CO)C(O)C(O)C1OC1OC(CO)C(O)C(OC(N)=O)C1O)c1cnc[nH]1` (centres unmarked) [Bleomycinic acid, reference compound]: at inactivating enzyme, the “Resistance to inactivating enzyme (residual activity with reaction time, FIGS. 1 to 6)” value is recorded as “markedly susceptible”. The “50% growth inhibitory concentration” value in the data set with HeLa S3 cells turned out to be 18 µg/mL.
Consider Bleomycin B2 [reference compound], for which the results for the “Acid-soluble DNA (%)” value in data set [1] (setting [3]), in data set [1] (setting [4]) and in data set [1] (sample concentration 25 mcg/ml) were 85.6%, 95.8% and 98.2%, respectively. Also, the “50% growth inhibitory concentration” value with HeLa S3 cells is 0.80 µg/mL.
Turning to N-methylbleomycin A2 '-b [Compound (4)], the “Acid-soluble DNA (%)” value in data set [1] (setting [3]) stood at 61.7%; in data set [1] (setting [4]) it was 94.1%; in data set [1] (sample concentration 25 mcg/ml), 99.4%. Also, the “50% growth inhibitory concentration” value in the data set on HeLa S3 cells is 0.58 µg/mL. In addition, the Antimicrobial activity in data set [2] (setting [8]) amounted to 618 mcg units/mg; in data set [2] (setting [5]), 625 mcg units/mg; in data set [2] (setting [6]), 595 mcg units/mg.
In the case of N-methylbleomycin A2 [Compound (2)], the “Acid-soluble DNA (%)” value in data set [1] (setting [3]) was determined as 64.6%; in data set [1] (setting [4]), 90.7%; in data set [1] (sample concentration 25 mcg/ml), 99.9%. Further, the “50% growth inhibitory concentration” value in the data set on HeLa S3 cells is 0.81 µg/mL. The Antimicrobial activity in data set [2] (setting [7]) is 520 mcg units/mg and 516 mcg units/mg and 507 mcg units/mg; in data set [2] (setting [8]), 418 mcg units/mg and 427 mcg units/mg and 420 mcg units/mg; in data set [2] (setting [5]) it was 423 mcg units/mg; in data set [2] (setting [6]) it was 513 mcg units/mg.
For N-methylbleomycin B2 [Compound (3)], the “Acid-soluble DNA (%)” value in data set [1] (setting [3]) worked out at 87.6%; in data set [1] (setting [4]) it was 95.5%; in data set [1] (sample concentration 25 mcg/ml) it was 102.1%. In the data set with HeLa S3 cells, the “50% growth inhibitory concentration” value was 0.35 µg/mL. Moreover, the Antimicrobial activity in data set [2] (setting [7]) was 1,758 mcg units/mg and 1,770 mcg units/mg; in data set [2] (setting [8]), 1,752 mcg units/mg and 1,756 mcg units/mg; in data set [2] (setting [5]), 1,755 mcg units/mg; in data set [2] (setting [6]), 1,766 mcg units/mg.
In the case of N-methylbleomycinic acid [Compound (1)], the “50% growth inhibitory concentration” value in the data set on HeLa S3 cells was found to be 4.8 µg/mL. The Antimicrobial activity in data set [2] (setting [5]) came out at 64 mcg units/mg; in data set [2] (setting [6]) it was 59 mcg units/mg.
